# Read-outs that look alike come from different tables or passages of the source.
# Key:
# Recombinant IDO1 = biological target: T1, Recombinant IDO1 (Homo sapiens, UniProt P14902); experiment: IDO1 enzymatic assay; format: biochemical; settings: 50 nM IDO1, 1.3 mM D-tryptophan, read-out: Enzyme IC50 (nM) IDO1
# T1 construct: His tag (N); made in house; host or cells: E. coli
# How it was run: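 N-terminally His-tagged enzyme from E. coli (50 nM) was incubated with compound, 1.3 mM D-tryptophan, 5 mM ascorbate, 6.25 μM methylene blue and 0.4 mg/mL catalase in 50 mM potassium phosphate pH 7.5, 0.1% BSA for 1.5 h at 24° C. N′-formylkynurenine formation was followed at 321 nm for 1 h; IC50 from rate slopes.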
# [1] = biological target: T2, cellular IDO1 in HeLa cells (Homo sapiens, UniProt P14902); experiment: HeLa cell-based IDO1 Kyn (kynurenine) production assay; settings: IFN-γ 100 ng/mL, 48 hours
# T2 construct: endogenous in cells; host or cells: HeLa cells (American Type Tissue Culture Collection), induced with human recombinant IFN-γ
# T2 sequence (P14902 whole entry): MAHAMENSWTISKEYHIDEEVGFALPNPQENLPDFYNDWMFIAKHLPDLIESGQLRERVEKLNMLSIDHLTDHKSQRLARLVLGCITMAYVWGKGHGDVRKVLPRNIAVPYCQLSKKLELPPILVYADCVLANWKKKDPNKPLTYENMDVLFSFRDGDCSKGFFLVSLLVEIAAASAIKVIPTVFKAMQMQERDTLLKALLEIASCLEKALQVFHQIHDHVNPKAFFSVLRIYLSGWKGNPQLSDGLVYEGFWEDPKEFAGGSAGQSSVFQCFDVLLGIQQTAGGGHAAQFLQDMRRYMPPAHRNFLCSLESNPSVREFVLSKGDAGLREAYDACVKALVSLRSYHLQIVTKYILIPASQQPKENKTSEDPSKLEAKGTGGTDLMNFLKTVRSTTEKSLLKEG
# How it was run: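 IFN-γ-induced HeLa cells (100 ng/mL) in phenol red-free DMEM with 0.4 mM L-Trp, compounds added together with IFN-γ, 48 h at 37 °C. Supernatant Kyn read at 480 nm after TCA precipitation and 4-(dimethylamino)benzaldehyde reaction. IC50 from four-parameter logistic fit.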
# Recombinant TDO = biological target: T3, Recombinant TDO (Homo sapiens, UniProt P48775); experiment: TDO enzymatic assay; format: biochemical; settings: 100 nM TDO, 0.5 mM L-tryptophan, read-out: Enzyme IC50 (nM) TDO
# T3 construct: His tag (C); made in house; host or cells: E. coli
# T3 sequence (P48775 whole entry): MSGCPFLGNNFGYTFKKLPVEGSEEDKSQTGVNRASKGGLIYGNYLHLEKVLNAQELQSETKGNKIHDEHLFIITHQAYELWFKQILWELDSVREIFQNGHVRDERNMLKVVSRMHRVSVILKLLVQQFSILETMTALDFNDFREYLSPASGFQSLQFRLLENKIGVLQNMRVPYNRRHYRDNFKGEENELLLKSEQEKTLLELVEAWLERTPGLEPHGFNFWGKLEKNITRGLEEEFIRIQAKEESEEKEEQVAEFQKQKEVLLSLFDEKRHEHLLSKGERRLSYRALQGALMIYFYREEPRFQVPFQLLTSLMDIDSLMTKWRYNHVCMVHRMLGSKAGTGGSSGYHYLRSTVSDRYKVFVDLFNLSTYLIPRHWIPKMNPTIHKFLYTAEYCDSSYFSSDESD
# Description: Recombinant TDO was overexpressed and purified from E. coli cells with a C-terminal His tag. TDO enzymatic assay was performed using the same methodology as IDO1 enzymatic assay except that 100 nM TDO and 0.5 mM L-tryptophan (Km concentration) were used in the TDO assay.
# [2] = Table 1, 5-substituted imidazo[1,5-a]pyridines
# [3] = Table 2, 8-substituted imidazo[1,5-a]pyridines
# T1 sequence (P14902 whole entry): as the sequence (P14902 whole entry) above
Structure (SMILES),IC50 (Recombinant IDO1; [2]) [nM],"EC50 [1, 2] [µM]",IC50 (Recombinant TDO; [2]) [nM],IC50 (Recombinant IDO1; [3]) [nM],IC50 (Recombinant TDO; [3]) [nM],"EC50 [1, 3] [µM]"
"OC(CC1CCCCC1)c1cc(Cl)cc2cncn12 (single isomer, unassigned) [Example A102a]",15,0.346,73,–,–,–
"OC(CC1CCCCC1)c1cc(Cl)cc2cncn12 (single isomer, unassigned) [Example A102b]",510,> 10,1200,–,–,–
"OC(CC1CCCCC1)c1cc(C(F)(F)F)cc2cncn12 (single isomer, unassigned) [Example A114a]",890,> 10,2600,–,–,–
"OC(CC1CCCCC1)c1cc(C(F)(F)F)cc2cncn12 (single isomer, unassigned) [Example A114b]",74,5.43,170,–,–,–
"OC(CC1CCCCC1)c1c(Cl)ccc2cncn12 (single isomer, unassigned) [Example A117a]",11,0.092,4100,–,–,–
"OC(CC1CCCCC1)c1c(Cl)ccc2cncn12 (single isomer, unassigned) [Example A117b]",1600,> 10,35000,–,–,–
"OC(CC1CCCCC1)c1c(Br)ccc2cncn12 (single isomer, unassigned) [Example A119a]",14,0.066,14000,–,–,–
"OC(CC1CCCCC1)c1c(C(F)(F)F)ccc2cncn12 (single isomer, unassigned) [Example A127a]",17,0.169,15000,–,–,–
"OC(CC1CCCCC1)c1c(C(F)(F)F)ccc2cncn12 (single isomer, unassigned) [Example A127b]",3200,8.01,25000,–,–,–
"OC(CC1CCCCC1)c1c(C2CC2)ccc2cncn12 (single isomer, unassigned) [Example A139a]",11,–,1800,–,–,–
"OC(CC1CCCCC1)c1c(C2CC2)ccc2cncn12 (single isomer, unassigned) [Example A139b]",4500,–,13000,–,–,–
"OC(CC1CCCCC1)c1cc(C(F)(F)F)cc2cncn12 (stereo not drawn) [Example A114, 2-cyclohexyl-1-(7-(trifluoromethyl)imidazo[1,5-a]pyridin-5-yl)ethan-1-ol]",260,–,420,–,–,–
"OC(c1c(C(F)(F)F)ccc2cncn12)C1CC1 (stereo not drawn) [Example A132, cyclopropyl(6-(trifluoromethyl)imidazo[1,5-a]pyridin-5-yl)methanol]",210,–,75000,–,–,–
"OC(c1c(Cl)c(Br)cc2cncn12)C1CC1 (stereo not drawn) [Example A150, (7-bromo-6-chloroimidazo[1,5-a]pyridin-5-yl)(cyclooropyl)methanol]",130,–,200,–,–,–
"OC(c1c(Cl)c(C(F)(F)F)cc2cncn12)C1CCCCC1 (stereo not drawn) [Example A155, (6-chloro-7-(trifluoromethyl)imidazo[1,5-a]pyridin-5-Yl)(cyclohexyl)methanol]",1000,–,1600,–,–,–
"OC(c1ccccc1)c1cccn2cncc12 (stereo not drawn) [Example B004, Imidazo[1,5-a]pyridin-8-yl(phenyl)methanol]",–,–,–,17000,3900,–
"OC1CC2CC1CC2C(O)c1c(C2CC2)ccn2cncc12 (stereo not drawn) [Example B142, 5-((7-cyclopropylimidazo[1,5-a]pyridin-8-yl)(hydroxy)methyl)bicyclo[2.2.1]heptan-2-ol]",–,–,–,1300,–,6.32

# Results, then the compound that gave them:
IC50 (Recombinant IDO1; [2]) [nM],"EC50 [1, 2] [µM]",IC50 (Recombinant TDO; [2]) [nM],IC50 (Recombinant IDO1; [3]) [nM],IC50 (Recombinant TDO; [3]) [nM],"EC50 [1, 3] [µM]",Structure (SMILES)
41,> 10,610,–,–,–,"OC(c1cccc2cncn12)C1CCCCC1 (single isomer, unassigned) [Example A001a]"
15,2.1,97,–,–,–,"OC(c1cc(C(F)(F)F)cc2cncn12)C1CCCCC1 (single isomer, unassigned) [Example A109a]"
1400,> 10,1200,–,–,–,"OC(c1cc(C(F)(F)F)cc2cncn12)C1CCCCC1 (single isomer, unassigned) [Example A109b]"
11,0.27,610,–,–,–,"OC(c1c(Cl)ccc2cncn12)C1CCCCC1 (single isomer, unassigned) [Example A116a]"
4800,> 10,67000,–,–,–,"OC(c1c(Cl)ccc2cncn12)C1CCCCC1 (single isomer, unassigned) [Example A116b]"
14,0.346,1700,–,–,–,"OC(c1c(Br)ccc2cncn12)C1CCCCC1 (single isomer, unassigned) [Example A118a]"
1600,> 10,53000,–,–,–,"OC(c1c(Br)ccc2cncn12)C1CCCCC1 (single isomer, unassigned) [Example A118b]"
1300,9.43,38000,–,–,–,"OC(CC1CCCCC1)c1c(Br)ccc2cncn12 (single isomer, unassigned) [Example A119b]"
9,0.092,8800,–,–,–,"OC(CC1CCCCC1)c1c(I)ccc2cncn12 (single isomer, unassigned) [Example A124a]"
1100,> 10,95000,–,–,–,"OC(CC1CCCCC1)c1c(I)ccc2cncn12 (single isomer, unassigned) [Example A124b]"
15,0.138,4500,–,–,–,"OC(c1c(I)ccc2cncn12)C1CCCCC1 (single isomer, unassigned) [Example A125a]"
12000,> 10,46000,–,–,–,"OC(c1c(I)ccc2cncn12)C1CCCCC1 (single isomer, unassigned) [Example A125b]"
36,0.156,14000,–,–,–,"OC(c1c(C2CC2)ccc2cncn12)C1CCCCC1 (single isomer, unassigned) [Example A126a]"
6800,> 10,74000,–,–,–,"OC(c1c(C2CC2)ccc2cncn12)C1CCCCC1 (single isomer, unassigned) [Example A126b]"
14,0.038,1700,–,–,–,"OC(c1c(C2CC2)ccc2cncn12)C1CCCCC1 (single isomer, unassigned) [Example A129a]"
21000,> 10,37000,–,–,–,"OC(c1c(C2CC2)ccc2cncn12)C1CCCCC1 (single isomer, unassigned) [Example A129b]"
20,0.274,690,–,–,–,"OC(c1c(Cl)c(Cl)cc2cncn12)C1CCCCC1 (single isomer, unassigned) [Example A143a]"
890,–,230,–,–,–,"O[C@@H](c1cc(Cl)cc2cncn12)C1CCCCC1 [Example A101b, (R)-(7-chloroimidazo[1,5-a]pyridin-5-yl)(cyclohexyl)methanol]"
–,–,–,2000,810,–,"OC(c1cccn2cncc12)C1CCCC1 (stereo not drawn) [Example B002, Cyclopentyl(imidazo[1,5-a]pyridin-8-yl)methanol]"
–,–,–,990,740,–,"OC(c1cccn2cncc12)C1CCCCCC1 (stereo not drawn) [Example B005, Cycloheptyl(imidazo[1,5-a]pyridin-8-yl)methanol]"
–,–,–,45,–,1.7,"OC(c1c(C2CC2)ccn2cncc12)C1C=CCCC1 (stereo not drawn) [Example B141, cyclohex-2-en-1-yl(7-cyclopropylimidazo[1,5-a]pyridin-8-yl)methanol]"

# — patent US10280163B2 (BeiGene, Ltd., priority 2015, dated 2019)
